Source: the NIST ThermoML archive (doi:10.1016/j.tca.2013.12.016)

Assay: mn = molality of the nth substance listed, in mol/kg
Settings: 101 kPa, Liquid; for speed of sound: Linear variable-path acoustic interferometer; for mass density: Vibrating tube method

CCOC(C)=O [ethyl acetate] + CO
Settings | mass density, 298.15 K [kg/m3] | mass density, 303.15 K [kg/m3] | speed of sound, 298.15 K [m/s] | speed of sound, 303.15 K [m/s]
m2 = 0.0111 | 894.5 | 888.9 | 1110 | 1086
m2 = 0.0223 | 894.6 | 888.8 | 1113 | 1089
m2 = 0.0495 | 894.7 | 888.7 | 1116 | 1092
m2 = 0.1474 | 894.9 | 888.6 | 1119 | 1095
m2 = 0.2878 | 894.7 | 888.5 | 1122 | 1098
m2 = 0.3556 | 894.4 | 888.3 | 1125 | 1101
m2 = 0.4905 | 893.6 | 887.7 | 1128 | 1104
m2 = 0.7268 | 892.2 | 886.4 | 1131 | 1107
m2 = 0.974 | 890.5 | 884.9 | 1134 | 1110
m2 = 1.409 | 888.2 | 882.6 | 1137 | 1113
m2 = 2.445 | 886.1 | 879.8 | 1140 | 1116
m2 = 3.001 | 886 | 879.1 | 1143 | 1122
